Molecules are shown by their SMILES. Where two headings read alike, the source gives them in different places.

13 molecules from patent US7674823B2, “DNA-PK inhibitors” (Cancer Research Technology Limited, priority 2001, dated 2010) can be followed below.

The target in series [1] is T1, ATM protein (Homo sapiens, UniProt Q13315).
T1 construct: ATM protein was immunoprecipitated from HeLa cell nuclear extract; endogenous in cells; host or cells: HeLa cell nuclear extract (immunoprecipitate)
Nature of the series: ATM inhibition assay (immunoprecipitated ATM, GSTp53N66 substrate). Type of series: biochemical. As to the method:
(§1) In order to assess the inhibitory action of the compounds against ATM in vitro, the following assay was used to determine IC50 values.
(§2) ATM protein was immunoprecipitated from HeLa cell nuclear extract using rabbit polyclonal antisera raised to the C-terminal ˜500 amino-acid residues of the human ATM protein. The immunoprecipitation was performed according to the methodology described by Banin, S. et al. (1998) Enhanced phosphorylation of p53 by ATM in response to DNA damage. Science 281:1674-1677. 10 μl of immunoprecipitated ATM in Buffer C (50 mM Hepes, pH 7.4, 6 mM MgCl2, 150 mM NaCl, 0.1 mM sodium orthovanadate, 4 mM MnCl2, 0.1 mM dithiothreitol, 10% glycerol) was added to 32.5 μl of buffer C containing 1 μg of the ATM substrate GSTp53N66 in a V-bottomed 96 well polypropylene plate. The GSTp53N66 substrate is the amino terminal 66 amino acid residues of human wild type p53 fused to glutathione S-transferase. ATM phosphorylates p53 on the residue serine 15 (Banin, S. et al. (1998) Enhanced phosphorylation of p53 by ATM in response to DNA damage. Science 281:1674-1677). Varying concentrations of inhibitor were then added. […] After 10 minutes of incubation at 37° C., the reactions were initiated by the addition of 5 μl of 50 μM Na-ATP. After 1 h with shaking at 37° C., 150 μl of phosphate buffered saline (PBS) was added to the reaction and the plate centrifuged at 1500 rpm for 10 minutes. 5 μl of the reaction was then transferred to a 96 well opaque white plate containing 45 μl of PBS to allow the GSTp53N66 substrate to bind to the plate wells. The plate was covered and incubated at room temperature for 1 h with shaking before discarding the contents. The plate wells were washed twice by the addition of PBS prior to the addition of 3% (w/v) bovine serum albumin (BSA) in PBS. The plate was incubated at room temperature for 1 h with shaking before discarding the contents and washing twice with PBS. To the wells, 50 μl of a 1:10,000 dilution of primary phosphoserine-15 antibody (Cell Signaling Technology, #9284L) in 3% BSA/PBS was added to detect the phosphorylation event on the serine 15 residue of p53 elicited by the ATM kinase. After 1 h of incubation at room temperature with shaking, the wells were washed four times with PBS prior to the addition of an anti-rabbit HRP conjugated secondary antibody (Pierce, 31462) with shaking for 1 h at room temperature. The wells were then washed four times with PBS before the addition of chemiluminescence reagent (NEN Renaissance, NEL105). The plate was then shaken briefly, covered with a transparent plate seal and transferred to a TopCount NXT for chemiluminescent counting. Counts per second, following a one second counting time, were recorded for each reaction. The inhibition of ATM activity by compounds was calculated as described above for the DNA-PK assay.
(§3) The selectivity was determined by the following equation: […]

Series [2] has as its system ATM protein. The series is described as above. The conditions noted are these: selectivity ratio from the IC50s for ATM and DNA-PK. Type of series: biochemical, human. How it is done:
as §1, §2, §3

For series [3], the target named is T2, PI 3-kinase (p110α/p85α) (UniProt P32871).
T2 construct: other: GST-fused p110α/p85α
Nature of the series: PI 3-kinase inhibition assay. Type of series: biochemical. Particulars: GST-fused p110α/p85α.
Source text: (§4) In order to assess the inhibitory action of the compounds against PI 3-kinase in vitro, the following assay was used to determine IC50 values.
(§5) Baculoviral recombinant GST-fused PI 3-kinase (p110α/p85α) was purified from Sf9 insect cells using GSH-sepharose affinity chromatography as described (Wymann, M. T et al., (1996) Wortmannin inactivates phosphoinositide 3-kinase by covalent modification of Lys-802, a residue involved in the phosphate transfer reaction. Mol. Cell Biol. 16:1722-1733). PI 3-kinase (1 μl) was diluted in reaction buffer (89 μl of 50 mM Hepes pH 7.5, 150 mM NaCl, 0.1 mM Sodium Orthovanadate, containing 20 μg of phosphatidylinositol) and varying concentrations of inhibitor compound added. […] Reactions were incubated for a further 20 minutes at 37° C., before quenching with the addition of 400 μl of chloroform/methanol (1:1). Reactions were acidified by the addition of 200 μl of 1M HCl, before separation of the organic and aqueous phases by centrifugation at 10,000 g for 30 seconds. The organic phase was transferred to a fresh tube and washed twice with 150 μl of 1M hydrochloric acid/methanol (1:1), discarding the aqueous phase. The washed reaction product was then placed in a white 96-well plate with 100 μl of scintillation fluid and transferred to a TopCount NXT for scintillation counting. Counts per minute, following a one minute counting time, were recorded for each reaction. The inhibition of PI 3-kinase activity by compounds was calculated as described above for the DNA-PK assay.
as §3

Series [4] concerns PI 3-kinase (p110α/p85α). The series can be described thus: PI 3-kinase inhibition assay. Type of series: biochemical. Particulars: selectivity ratio from the IC50s for PI 3-kinase and DNA-PK.
Source text: as §4, §5, §3

Series [5] deals with T3, Mammalian DNA-PK, isolated from Hela cell nuclear extract (Homo sapiens, UniProt P78527).
T3 construct: Mammalian DNA-PK, isolated from Hela cell nuclear extract; endogenous in cells; host or cells: HeLa cell nuclear extract (purified per Gell and Jackson 1999)
Nature of the series: DNA-PK inhibition assay (33P-ATP, filter binding). Type of series: biochemical. How it is done:
In order to assess the inhibitory action of the compounds against DNA-PK in vitro, the following assay was used to determine IC50 values.
The total assay volume per well was 40 μl.
After 10 minutes of incubation at 30° C. the reactions were initiated by the addition of Na-ATP (50 μM final), ^33p-γATP and a 30mer double stranded DNA oligonucleotide (10 ng/μl) in a volume of 10 μl. Designated positive and negative reaction wells were done in combination with compound wells (unknowns) in order to calculate % enzyme activities. The plates were then shaken for 2 minutes and incubated at 30° C. for 45 minutes.
Following the incubation, the reactions were quenched by the addition of 50 μl 30% acetic acid to each well. The plates were then shaken for 5 minutes and the contents of each plate (80 μl from each well) transferred over to a 96 well Polyfiltronics filtration plate, containing P81-phosphocellulose membrane (TRADE MARK)(Whatman, UK). The solutions were vacuum pumped through the membrane and each well membrane washed four times using 300 μl of 15% acetic acid. The well membranes were then air dried and 20 μl of scintillant was added to each well.
The plates were transferred to a TopCount NXT (TRADE MARK) (Packard, UK) for scintillation counting. Values recorded are counts per minute (cpm) following a 1 minute counting time for each well.
The enzyme activity for each compound is then calculated using the following equation: […]
These are determined over a range of different concentrations, normally from 10 μM down to 0.01 μM. Such IC50 values are used as comparative values to identify increased compound potencies.

The mark [6] stands for this setting: concentration at which 50% of the enzyme activity is inhibited, read-out: DNA-PK Inhibition IC50.

T1 sequence (Q13315 whole entry): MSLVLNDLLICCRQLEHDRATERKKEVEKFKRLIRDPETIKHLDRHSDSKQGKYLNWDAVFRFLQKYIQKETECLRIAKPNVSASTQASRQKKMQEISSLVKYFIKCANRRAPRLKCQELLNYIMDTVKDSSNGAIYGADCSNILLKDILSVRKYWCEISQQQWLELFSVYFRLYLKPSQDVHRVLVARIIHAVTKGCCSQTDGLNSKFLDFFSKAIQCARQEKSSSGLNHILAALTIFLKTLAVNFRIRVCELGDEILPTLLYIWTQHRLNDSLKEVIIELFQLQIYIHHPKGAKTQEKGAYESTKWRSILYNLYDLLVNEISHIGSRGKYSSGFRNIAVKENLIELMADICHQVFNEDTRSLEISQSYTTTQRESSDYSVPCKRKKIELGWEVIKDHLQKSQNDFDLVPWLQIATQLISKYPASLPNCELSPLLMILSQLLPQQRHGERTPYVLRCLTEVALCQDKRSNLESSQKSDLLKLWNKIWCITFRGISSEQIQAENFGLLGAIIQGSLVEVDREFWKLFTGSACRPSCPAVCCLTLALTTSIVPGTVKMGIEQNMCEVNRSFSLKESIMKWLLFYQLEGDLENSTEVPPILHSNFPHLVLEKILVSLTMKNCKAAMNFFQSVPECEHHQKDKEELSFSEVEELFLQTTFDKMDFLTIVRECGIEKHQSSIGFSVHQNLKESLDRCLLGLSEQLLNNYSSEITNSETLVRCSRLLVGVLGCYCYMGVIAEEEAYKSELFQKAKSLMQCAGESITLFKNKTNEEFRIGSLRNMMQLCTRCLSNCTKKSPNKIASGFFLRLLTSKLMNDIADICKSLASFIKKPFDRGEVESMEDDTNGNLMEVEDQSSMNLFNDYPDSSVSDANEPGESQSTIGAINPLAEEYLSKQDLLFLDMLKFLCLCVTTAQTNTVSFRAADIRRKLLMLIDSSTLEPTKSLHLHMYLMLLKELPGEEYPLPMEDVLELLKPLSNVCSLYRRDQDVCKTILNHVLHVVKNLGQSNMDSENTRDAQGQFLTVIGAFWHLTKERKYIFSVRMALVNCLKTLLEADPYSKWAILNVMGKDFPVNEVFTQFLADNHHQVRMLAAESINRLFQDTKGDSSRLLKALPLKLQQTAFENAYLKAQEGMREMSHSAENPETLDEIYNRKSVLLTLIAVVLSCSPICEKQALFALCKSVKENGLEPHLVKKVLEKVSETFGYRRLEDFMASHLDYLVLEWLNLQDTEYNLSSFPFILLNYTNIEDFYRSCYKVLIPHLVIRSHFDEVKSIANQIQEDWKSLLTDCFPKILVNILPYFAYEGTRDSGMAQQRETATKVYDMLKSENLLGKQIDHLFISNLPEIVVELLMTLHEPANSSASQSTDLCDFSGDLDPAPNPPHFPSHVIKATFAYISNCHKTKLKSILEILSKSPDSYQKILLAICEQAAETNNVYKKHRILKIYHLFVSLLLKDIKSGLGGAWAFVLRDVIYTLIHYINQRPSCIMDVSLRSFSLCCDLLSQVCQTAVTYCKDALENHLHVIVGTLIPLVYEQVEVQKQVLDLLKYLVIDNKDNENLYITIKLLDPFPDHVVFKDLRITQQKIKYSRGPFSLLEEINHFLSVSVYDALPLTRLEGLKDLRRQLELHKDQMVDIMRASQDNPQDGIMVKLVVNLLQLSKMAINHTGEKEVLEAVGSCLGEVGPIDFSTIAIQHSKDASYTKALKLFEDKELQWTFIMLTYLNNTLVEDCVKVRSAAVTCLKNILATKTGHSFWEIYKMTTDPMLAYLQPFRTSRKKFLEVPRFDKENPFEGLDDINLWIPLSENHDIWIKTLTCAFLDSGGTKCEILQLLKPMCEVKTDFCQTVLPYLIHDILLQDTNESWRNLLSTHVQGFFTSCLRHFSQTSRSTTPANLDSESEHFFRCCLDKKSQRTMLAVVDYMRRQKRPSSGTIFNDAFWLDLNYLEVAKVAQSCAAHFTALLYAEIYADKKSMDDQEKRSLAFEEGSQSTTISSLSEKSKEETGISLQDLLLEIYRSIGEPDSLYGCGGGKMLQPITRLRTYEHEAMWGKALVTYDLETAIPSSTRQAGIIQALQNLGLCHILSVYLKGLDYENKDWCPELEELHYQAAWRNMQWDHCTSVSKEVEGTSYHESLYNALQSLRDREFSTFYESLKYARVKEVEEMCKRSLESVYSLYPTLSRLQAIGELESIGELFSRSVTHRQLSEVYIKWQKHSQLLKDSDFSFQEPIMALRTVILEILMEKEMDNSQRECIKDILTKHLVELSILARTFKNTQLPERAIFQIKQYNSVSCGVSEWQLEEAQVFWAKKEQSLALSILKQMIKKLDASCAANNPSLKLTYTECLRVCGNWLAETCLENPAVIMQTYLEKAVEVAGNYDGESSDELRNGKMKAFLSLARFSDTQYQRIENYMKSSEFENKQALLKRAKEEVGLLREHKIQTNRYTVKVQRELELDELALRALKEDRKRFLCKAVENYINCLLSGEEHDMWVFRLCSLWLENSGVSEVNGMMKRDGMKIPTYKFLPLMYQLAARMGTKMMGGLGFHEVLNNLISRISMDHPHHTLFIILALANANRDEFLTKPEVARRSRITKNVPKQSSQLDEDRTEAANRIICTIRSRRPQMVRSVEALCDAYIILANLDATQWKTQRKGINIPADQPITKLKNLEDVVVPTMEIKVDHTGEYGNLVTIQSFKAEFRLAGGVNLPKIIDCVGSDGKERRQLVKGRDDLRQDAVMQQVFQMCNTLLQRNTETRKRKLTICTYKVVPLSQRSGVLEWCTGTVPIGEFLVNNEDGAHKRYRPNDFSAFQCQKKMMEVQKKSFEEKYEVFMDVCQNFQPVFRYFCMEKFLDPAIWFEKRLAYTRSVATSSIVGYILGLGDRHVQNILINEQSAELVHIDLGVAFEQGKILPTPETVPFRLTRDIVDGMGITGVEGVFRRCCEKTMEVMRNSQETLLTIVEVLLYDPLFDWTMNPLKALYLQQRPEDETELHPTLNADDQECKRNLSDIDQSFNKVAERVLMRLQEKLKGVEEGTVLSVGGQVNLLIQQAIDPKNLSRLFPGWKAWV

For orientation: IC50 means the concentration at which inhibition is half-maximal. On ATM protein [1], `O=c1cc(-c2ccc(Cl)cc2)oc(N2CCOCC2)c1` [Compound 284, 2-(4-chlorophenyl)-6-(morpholin-4-yl)-pyran-4-one] registered an IC50 of over 100 µM. Also, the “Δ(DNA-PK/ATM)” value with ATM protein [2] is listed as over 286.

Broadly, the melting point is the temperature of the solid-liquid transition. Molecule `O=c1cc(-c2ccccc2)oc(N2CCOCC2)c1` [Compound 285, 2-(morpholin-4-yl)-6-phenyl-pyran-4-one] yielded a melting point of 148 to 150 °C. Inhibition at PI 3-kinase (p110α/p85α) [3] was half-maximal at 30 µM (IC50). The “Δ(DNA-PK/PI 3-K)” value in the series with PI 3-kinase (p110α/p85α) [4] amounted to 38. At ATM protein [1], this molecule returned a half-maximal inhibitory concentration (IC50) of over 50 µM. Further, the “Δ(DNA-PK/ATM)” value with ATM protein [2] is recorded as over 63.

Molecule `COc1ccccc1-c1cc(=O)cc(N2CCOCC2)o1` [Compound 286, 2-(2-methoxyphenyl)-6-(morpholin-4-yl)-pyran-4-one] gave a melting point of 125 to 127 °C. The IC50 against ATM protein [1] is 24 µM. Also, the “Δ(DNA-PK/ATM)” value with ATM protein [2] was found to be 80.

With `COc1cccc(-c2cc(=O)cc(N3CCOCC3)o2)c1` [Compound 287, 2-(3-methoxyphenyl)-6-(morpholin-4-yl)-pyran-4-one], the melting point was in the range of 115 to 117 °C. The molecule further had an IC50 against ATM protein [1] of over 50 µM. Moreover, in the series with ATM protein [2], the “Δ(DNA-PK/ATM)” value is reported as over 125.

With `COc1ccc(-c2cc(=O)cc(N3CCOCC3)o2)cc1` [Compound 288, 2-(4-Methoxyphenyl)-6-(morpholin-4-yl)-pyran-4-one], the IC50 on PI 3-kinase (p110α/p85α) [3] is 15 µM; at ATM protein [1] it was over 100 µM. Further, the “Δ(DNA-PK/PI 3-K)” value in the series with PI 3-kinase (p110α/p85α) [4] was 43. The “Δ(DNA-PK/ATM)” value with ATM protein [2] is over 286.

`CC(C)(C)c1ccc(-c2cc(=O)cc(N3CCOCC3)o2)cc1` [Compound 289, 2-(4-tert-butyl-phenyl)-6-(morpholin-4-yl)-pyran-4-one] came in with a melting point of 156 °C. The molecule also gave an IC50 against PI 3-kinase (p110α/p85α) [3] of 37 µM. In addition, in the series with PI 3-kinase (p110α/p85α) [4], the “Δ(DNA-PK/PI 3-K)” value was determined as 82. The molecule also came in with an IC50 on ATM protein [1] of over 50 µM. Further, the “Δ(DNA-PK/ATM)” value in the series with ATM protein [2] is listed as over 111.

Consider `O=c1cc(-c2cccc(F)c2)oc(N2CCOCC2)c1` [Compound 291, 6-(3-fluorophenyl)-2-(morpholin-4-yl)pyran-4-one], for which the melting point was in the range of 169 to 170 °C. At ATM protein [1], the IC50 is over 50 µM. In addition, the “Δ(DNA-PK/ATM)” value with ATM protein [2] is reported as over 167.

For the molecule `O=c1cc(N2CCOCC2)oc2c(-c3ccccc3)cccc12` [Compound 294, 8-Phenyl-2-(morpholin-4-yl)-chromen-4-one], the “Δ(DNA-PK/PI 3-K)” value in the series with PI 3-kinase (p110α/p85α) [4] is on record as 1. In addition, the half-maximal inhibitory concentration (IC50) on ATM protein [1] is over 100 µM. Moreover, the “Δ(DNA-PK/ATM)” value in the series on ATM protein [2] was over 67.

In the case of `O=c1cc(N2CCOCC2)oc2cc(O)ccc12` [Compound 307, 7-hydroxy-2-(morpholin-4-yl)-chromen-4-one], the IC50 in series [5] (setting [6]) is 0.9 µM; at ATM protein [1] it was over 100 µM. The “Δ(DNA-PK/ATM)” value with ATM protein [2] is over 111.

Regarding `O=c1cc(N2CCOCC2)oc2ccc3ccccc3c12` [Compound 310, 2-morpholin-4-yl-benzo[f]chromen-4-one], the IC50 against PI 3-kinase (p110α/p85α) [3] was 11 µM; on ATM protein [1], over 100 µM. In the series with PI 3-kinase (p110α/p85α) [4], the “Δ(DNA-PK/PI 3-K)” value was 110. Moreover, the “Δ(DNA-PK/ATM)” value in the series on ATM protein [2] is recorded as over 1000.

As for `O=c1cc(N2CCOCC2)oc2cc(OCc3ccc4ccccc4c3)ccc12` [Compound 418, 7-(Naphthalen-2-ylmethoxy)-2-morpholin-4-yl-chromen-4-one], the melting point was in the range of 263 to 264 °C. Moreover, the IC50 in series [5] (IC50 of less than about 1 μM and/or % inhibition of more than about 50 at 1 μM, read-out: DNA-PK inhibition IC50 (particular efficacy)) is under 1 µM. Besides, the IC50 in series [5] (setting [6]) stood at 0.45 µM. On ATM protein [1], this molecule showed an IC50 of over 100 µM. Besides, in the series on ATM protein [2], the “Δ(DNA-PK/ATM)” value is over 222.

`O=c1cc(N2CCOCC2)oc2cc(OCC3CCCCC3)ccc12` [Compound 419, 7-Cyclohexylmethoxy-2-(morpholin-4-yl)-chromen-4-one] had a melting point of 187 to 188 °C. In addition, in series [5] (setting [6]), the IC50 came to 1 µM.

`O=C(Oc1ccc2c(=O)cc(N3CCOCC3)oc2c1)c1ccccc1` [Compound 423, 7-Benzoyloxy-2-(morpholin-4-yl)-chromen-4-one] gave a melting point of 204 to 206 °C. The IC50 in series [5] (setting [6]) is 3 µM. Besides, on ATM protein [1], the IC50 was over 100 µM. Moreover, in the series with ATM protein [2], the “Δ(DNA-PK/ATM)” value is listed as over 33.
